In patent US11021481B2, “Substituted isoindolin-1-ones and 2,3-dihydro-1h-pyrrolo[3,4-c]pyridin-1-ones as HPK1 antagonists” (Nimbus Saturn, Inc., priority 2019, dated 2021):
Counter-ions that a name gives are not always drawn.

The molecules below were run against HPK1 (Homo sapiens (Human), UniProt Q92918) (assay: HPK1 biochemical enzyme assay (microfluidic mobility shift assay)). Conditions: 1.5 nM HPK1, ATP 1 mM final, 30 min preincubation, 60 min at RT, Caliper EZ Reader; read-out: HPK1 1000UMATP caliper IC50.
Sequence of HPK1 (Q92918 whole entry): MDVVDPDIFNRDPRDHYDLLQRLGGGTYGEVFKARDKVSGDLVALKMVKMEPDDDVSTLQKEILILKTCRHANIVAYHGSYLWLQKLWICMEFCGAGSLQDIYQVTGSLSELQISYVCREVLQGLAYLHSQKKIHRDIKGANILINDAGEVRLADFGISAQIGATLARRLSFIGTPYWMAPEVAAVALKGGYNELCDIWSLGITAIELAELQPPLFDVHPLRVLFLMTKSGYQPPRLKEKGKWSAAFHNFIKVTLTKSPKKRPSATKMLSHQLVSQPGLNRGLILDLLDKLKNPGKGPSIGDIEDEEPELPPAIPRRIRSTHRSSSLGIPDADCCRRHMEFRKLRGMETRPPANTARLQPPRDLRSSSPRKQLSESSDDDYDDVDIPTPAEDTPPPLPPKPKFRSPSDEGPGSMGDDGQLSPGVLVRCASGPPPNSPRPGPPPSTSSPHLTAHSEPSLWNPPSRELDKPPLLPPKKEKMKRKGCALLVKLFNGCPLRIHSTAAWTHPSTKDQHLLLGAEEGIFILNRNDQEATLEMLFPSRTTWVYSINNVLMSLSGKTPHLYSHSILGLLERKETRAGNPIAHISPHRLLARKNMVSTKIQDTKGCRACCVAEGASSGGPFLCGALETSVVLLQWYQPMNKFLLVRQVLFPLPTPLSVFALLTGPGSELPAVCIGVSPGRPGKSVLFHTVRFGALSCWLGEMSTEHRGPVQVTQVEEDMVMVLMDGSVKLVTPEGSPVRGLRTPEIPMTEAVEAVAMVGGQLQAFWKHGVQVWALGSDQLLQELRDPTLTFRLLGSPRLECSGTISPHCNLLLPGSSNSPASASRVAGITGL
In short: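 Mobility shift readout of HPK1 activity after a 60 min RT reaction with 1 mM ATP, 1 μM substrate and 5 mM MgCl2. Enzyme/substrate mix was first exposed to compounds for 30 min, using ten-point curves topping at 3 μM final.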

With `Cc1c(F)ccn2c(-c3ccc(Nc4ccc(N5CCC(O)CC5)cn4)c4c3CNC4=O)cnc12` [I-209, 4-(7-fluoro-8-methyl-imidazo[1,2-a]pyridin-3-yl)-7-[[5-(4-hydroxy-1-piperidyl)-2-pyridyl]amino] isoindolin-1-one] as the molecule, how does the IC50 read?
Its IC50 is under 100 nM.

With `O=C1NCc2c(-c3cnn4c3CCCC4)ccc(Nc3ccc(N4CCC[C@@]5(CCNC5=O)C4)cn3)c21` [I-445, (R)-7-(6-((3-oxo-7-(4,5,6,7-tetrahydropyra-zolo[1,5-a]pyridin-3-yl)isoindolin-4-yl)amino)pyri-din-3-yl)-2,7-diazaspiro[4.5] decan-1-one] as the molecule, how does the IC50 read?
Its IC50 is 100 to 1000 nM.

Which IC50 does the source give for `N#Cc1ccn2c(-c3ccc(Nc4ccc(N5CCC(O)CC5)cn4)c4c3CNC4=O)cnc2c1F` [I-188, 8-fluoro-3-[7-[[5-(4-hydroxy-1-piperidyl)-2-pyridyl]amino]-1-oxo-isoindolin-4-yl]imidazo[1,2-a]pyridine-7-carbonitrile] here?
Its IC50 is under 100 nM.

How did the IC50 turn out when `CN(C)Cc1nc(Nc2ccc(-c3cnc4cc(F)ccn34)c3c2C(=O)NC3)ccc1N1CC[C@@H](F)[C@H](O)C1` [I-700, 7-((6-((dimethylamino)-methyl)-5-((3R,4R]-4-fluoro-3-hydroxypiperidin-1-yl)pyridin-2-yl)amino)-4-(7-fluoroimidazo [1,2-a]pyridin-3-yl)isoindolin-1-one] was run?
The IC50 was under 100 nM.

With `Cc1cccc2c(-c3ccc(Nc4ccc(C5CCOC5)c(CN(C)C)n4)c4c3CNC4=O)cnn12` (stereo in doubt) [I-710, (R)-7-((6-((dimethylamino)-methyl)-5-(tetrahydrofuran-3-yl)pyridin-2-yl)amino)-4-(7-methylpyra-zolo[1,5-a]pyridin-3-yl)isoindolin-1-one] as the molecule, how does the IC50 read?
Its IC50 is under 100 nM.

Which IC50 does the source give for `O=C1NCc2c(-c3cnc4cc(F)ccn34)ccc(Nc3ccc(N4CCCC(N5CCOCC5)C4)cn3)c21` (stereo not drawn) [I-476, Formic acid salt 4-(7-fluoroimidazo [1,2-a]pyridin-3-yl)-7-[[5-(3-morpholino-1-piperidyl)-2-pyridyl]amino] isoindolin-1-one] here?
The IC50 was under 100 nM.

Which IC50 does the source give for `CN(C)C(C)(C)C1CN(c2ccc(Nc3ccc(-c4cnc5cc(F)ccn45)c4c3C(=O)NC4)nc2)CCO1` (stereo not drawn) [I-564, 7-((5-(2-(2-(dimethylami-no)propan-2-yl)morpholino)pyridin-2-yl)amino)-4-(7-fluoroimidazo [1,2-a]pyridin-3-yl)isoindolin-1-one] here?
Its IC50 is under 100 nM.

How did the IC50 turn out when `Cc1csc2c(-c3ncc(Nc4ccc(N5CCC(O)CC5)cn4)c4c3CNC4=O)ccnc12` [I-373, 7-((5-(4-hydroxypiperidin-1-yl)pyridin-2-yl)amino)-4-(3-methylthieno [3,2-b]pyridin-7-yl)-2,3-dihydro-1H-pyrrolo[3,4-c]pyridin-1-one] was run?
The IC50 was under 100 nM.

Which IC50 does the source give for `CN1CCN(c2ccc(Nc3ccc(-c4cnc5c(ccn5C)c4)c4c3C(=O)NC4)nc2)CC1` [I-44, 7-[[5-(4-methylpiperazin-1-yl)-2-pyridyl]amino]-4-(1-methylpyrrolo [2,3-b]pyridin-5-yl)isoindolin-1-one] here?
Its IC50 is 100 to 1000 nM.

`O=C1NCc2c(-c3cnc4cc(F)ccn34)ncc(Nc3ccc(N4CCC(O)CC4)cn3)c21` [I-167, 4-(7-fluoroimidazo [1,2-a]pyridin-3-yl)-7-[[5-(4-hydroxy-1-piperidyl)-2-pyridyl]amino]-2,3-dihydropyrrolo [3,4-c]pyridin-1-one] was tested. Which IC50 did it give?
Its IC50 is under 100 nM.

For `O=C1NCc2c(-c3cnc4cnccn34)ccc(Nc3ccc(N4CCC[C@@H](O)CC4)cn3)c21` [I-329, (R)-7-((5-(4-hydroxyaze-pan-1-yl)pyridin-2-yl)amino)-4-(imidazol[1,2-a]pyrazin-3-yl)isoindolin-1-one], which IC50 is on record?
Its IC50 is under 100 nM.

How did the IC50 turn out when `CO[C@@H]1CC[C@@H](CO)N(c2ccc(Nc3ccc(-c4cnn5c4CCCC5)c4c3C(=O)NC4)nc2)C1` (stereo in doubt) [I-572, 7-((5-((2R,5R)-2-(hydroxymeth-yl)-5-methoxy-piperidin-1-yl)pyridin-2-yl)amino)-4-(4,5,6,7-tetralndropyra-zolo[1,5-a]pyridin-3-yl)isoindolin-1-one] was run?
Its IC50 is under 100 nM.

How did the IC50 turn out when `CN(C)Cc1nc(Nc2ccc(-c3cnc4cc(F)ccn34)c3c2C(=O)NC3)ccc1N1CCC[C@@H](O)C1` [I-524, 7-[[6-[(dimethylamino)-methyl]-5-[(3R)-3-hydroxy-1-piperipyl]-2-pyridyl]amino]-4-(7-fluoroimidazo [1,2-a]pyridin-3-yl)isoindolin-1-one] was run?
The IC50 was under 100 nM.

With `O=C1NCc2c(-c3cnc4cc(F)ccn34)ccc(Nc3ccc(C4CCOC4)c(N4CCNCC4)n3)c21` (stereo in doubt) [I-773, (R)-4-(7-fluoroimidazo [1,2-a]pyridin-3-yl)-7-((6-(piperazin-1-yl)-5-(tetrahydrofuran-3-yl)pyridin-2-yl)amino)isoin-dolin-1-one] as the molecule, how does the IC50 read?
The IC50 was 100 to 1000 nM.

With `CN1C[C@@H](c2ccc(Nc3ccc(-c4cnc5cnccn45)c4c3C(=O)NC4)nc2)CCC1=O` [I-325, (R)-4-(imidazo[1,2-a]pyrazin-3-yl)-7-((5-(1-methyl-6-oxopiperidin-3-yl)pyridin-2-yl)amino)isoin-dolin-1-one] as the molecule, how does the IC50 read?
Its IC50 is under 100 nM.

How did the IC50 turn out when `COC[C@@]1(O)CCCN(c2ccc(Nc3ccc(-c4cnc5cc(F)ccn45)c4c3C(=O)NC4)nc2)C1` [I-394, (R)-4-(7-fluoroimidazo [1,2-a]pyridin-3-yl)-7-((5-(3-hydroxy-3-(methoxymeth-yl)piperidin-1-yl)pyridin-2-yl)amino)isoin-dolin-1-one] was run?
Its IC50 is under 100 nM.

With `CCNC(=O)c1ccn2c(-c3ccc(Nc4ccc(N5CCOCC5)cn4)c4c3CNC4=O)cnc2c1` [I-207, N-ethyl-3-[7-[(5-morpholino-2-pyridyl)-amino]-1-oxo-isoindolin-4-yl]imidazo[1,2-a]pyridine-7-carboxamide] as the molecule, how does the IC50 read?
The IC50 was 100 to 1000 nM.

With `O=C1NCc2c(-c3cnc4cc(F)ccn34)ccc(Nc3ccc([C@H]4CCOC4)c(CN4CC[C@@H](F)C4)n3)c21` (stereo in doubt) [I-741, 4-(7-fluoroimidazo [1,2-a]pyridin-3-yl)-7-((6-(((R)-3-fluoropyrrol-idin-1-yl)methyl)-5-((S)-tetrahydrofur-an-3-yl)pyridin-2-yl)amino)isoin-dolin-1-one] as the molecule, how does the IC50 read?
Its IC50 is under 100 nM.

Which IC50 does the source give for `CC(C)(O)[C@H]1CCCN(c2ccc(Nc3ccc(-c4cnc5cc(F)ccn45)c4c3C(=O)NC4)nc2)C1` [I-213, 4-(7-fluoroimidazo [1,2-a]pyridin-3-yl)-7-[[5-[(3S)-3-(1-hydroxy-1-methyl-ethyl)-1-piperidyl]-2-pyridyl]amino] isoindolin-1-one] here?
The IC50 was under 100 nM.

`C[C@@H]1NC(=O)c2c(Nc3ccc(N4CCC(O)CC4)cn3)ccc(-c3cnc4ccccn34)c21` [I-316, (S)-7-((5-(4-hydroxypip-eridin-1-yl)pyridin-2-yl)amino)-4-(imidazo[1,2-a]pyridin-3-yl)-3-methylisoindo-lin-1-one] was tested. Which IC50 did it give?
The IC50 was over 1000 nM.

`O=C1NCc2c(-c3ccc4cnccn34)ccc(Nc3ccc(N4CCC(O)CC4)cn3)c21` [I-369, 7-((5-(4-hydroxypiper-idin-1-yl)pyridin-2-yl)amino)-4-(pyrrolo[1,2-a]pyrazin-6-yl)isoindolin-1-one] was tested. Which IC50 did it give?
The IC50 was under 100 nM.

How did the IC50 turn out when `CN(Cc1nc(Nc2ccc(-c3cnc4cc(F)ccn34)c3c2C(=O)NC3)ccc1[C@H]1CCOC1)CC(F)F` (single isomer, unassigned) [I-748] was run?
Its IC50 is under 100 nM.

`C[C@H](c1ccc(Nc2ccc(-c3cnc4cc(F)ccn34)c3c2C(=O)NC3)nc1)N1CCC[C@H](O)C1` (stereo in doubt) [I-514, 4-(7-fluoroimidazo [1,2-a]pyridin-3-yl)-7-((5-((R)-1-((S)-3-hydroxypiperidin-1-yl)ethyl)pyridin-2-yl)amino)isoin-dolin-1-one] was tested. Which IC50 did it give?
The IC50 was under 100 nM.

`C[C@@H]1COCCN1c1ccc(Nc2ccc(-c3cnc4cc(F)ccn34)c3c2C(=O)NC3)nc1CN(C)C` [I-528, 7-[[6-[(dimethylamino)-methyl]-5-[(3R)-3-methylmorpho-lin-4-yl J-2-pyridyl]amino]-4-(7-fluoroimidazo [1,2-a]pyridin-3-yl)isoindolin-1-one Formic acid salt] was tested. Which IC50 did it give?
The IC50 was under 100 nM.

Which IC50 does the source give for `CC(C)N(C)Cc1nc(Nc2ccc(-c3cnc4cc(F)ccn34)c3c2C(=O)NC3)ccc1C1CCOC1` (stereo in doubt) [I-729, (S)-4-(7-fluoroimidazo [1,2-a]pyridin-3-yl)-7-((6-((isopropyl(methyl)amino)methyl)-5-(tetrahydrofuran-3-yl)pyridin-2-yl)amino)isoin-dolin-1-one] here?
The IC50 was under 100 nM.

Which IC50 does the source give for `CN(C)Cc1nc(Nc2ccc(-c3cnc4cc(F)ccn34)c3c2C(=O)NC3)ccc1N1CCOCC12CC2` [I-525, 7-[[6-[(dimethylamino)-methyl]-5-(7-oxa-4-azaspiro[2.5]octan-4-yl)-2-pyridyl]amino]-4-(7-fluoroimidazo [1,2-a]pyridin-3-yl)isoindolin-1-one] here?
The IC50 was under 100 nM.

With `CN(C)C[C@H]1CN(c2ccc(Nc3ccc(-c4cnc5cc(F)ccn45)c4c3C(=O)NC4)nc2)CCO1` [I-604, (S)-7-((5-(2-((dimethylamino)-methyl)mor pholino)pyridin-2-yl)amino)-4-(7-fluoroimidazo [1,2-a]pyridin-3-yl)isoindolin-1-one] as the molecule, how does the IC50 read?
The IC50 was under 100 nM.

For `O=C1NCc2c(-c3cnc4cc(F)ccn34)ccc(Nc3ccc(N4CC[C@H](O)[C@@H](F)C4)cn3)c21` [I-400, 7-((5-((3S, 4S)-3-fluoro-4-hydroxy-piperidin-1-yl)pyridin-2-yl)amino)-4-(7-fluoroimidazo [1,2-a]pyridin-3-yl)isoindolin-1-one], which IC50 is on record?
Its IC50 is under 100 nM.

`CN1CCN(c2ccc(Nc3ccc(-c4cccc5[nH]ccc45)c4c3C(=O)NC4)nc2)CC1` [I-41, 4-(1H-indol-4-yl)-7-[[5-(4-methylpiperazin-1-yl)-2-pyridyl]amino] isoindolin-1-one] was tested. Which IC50 did it give?
The IC50 was under 100 nM.

For `CN(C)Cc1nc(Nc2ccc(-c3cnc4cc(F)ccn34)c3c2C(=O)NC3)ccc1N1CCOC2(CC2)C1` [I-530, 7-[[6-[(dimethylamino)-methyl]-5-(4-oxa-7-azaspiro[2.5]octan-7-yl)-2-pyridyl]amino]-4-(7-fluoroimidazo [1,2-a]pyridin-3-yl)isoindolin-1-one Formic acid salt], which IC50 is on record?
Its IC50 is under 100 nM.
